Data taken from US20250313528A1, “NOVEL COMPOUND AND PHARMACEUTICAL COMPOSITION FOR PREVENTING OR TREATING PULMONARY FIBROSIS COMPRISING SAME AS ACTIVE INGREDIENT” (GIL MEDICAL CENTER, priority 2022, published 2025).

Tests used:
Assay type in all cases: cell-based, human
FN, COL1A1, and α-SMA [1] = assay: qRT-PCR of fibrosis-related genes in TGF-β1-induced DHLF-IPF cells; settings: 10 μM pretreatment 1 hour, TGF-β1 1 ng/ml 48 hours, FIG. 4c/4d
Protocol: (§1) MRC-5 and DHLF-IPF cells were each cultured in growth medium, and the medium was removed. […] The medium was then removed, and the cells were washed once with PBS. Intracellular total RNA was extracted from the cultured cells using TRIzol reagent (TaKaRa Bio Inc., Japan) for gene expression analysis. 1 mL of TRIzol reagent was added to lyse the cells and denature the tissue. The lysate was transferred to each 1.5 mL tube, and 200 μL of chloroform was added thereto, followed by vortexing for 20 seconds to ensure complete mixing. After incubating at room temperature for 15 minutes, the mixture was centrifuged at 14,000 rpm for 20 minutes to obtain the supernatant. After adding an equal volume of isopropyl alcohol, the tubes were inverted and incubated at room temperature for 10 minutes. The sample was centrifuged at 14,000 rpm for 15 minutes to obtain an RNA pellet, which was washed by centrifugation with 70% ethanol for use on RNA at 14,000 rpm for 5 minutes, and dried for 5 minutes. The dried RNA sample was added with 20 μL of distilled water treated with 0.1% diethyl pyrocarbonate (DEPC) to dissolve the pallet and the resultant was used as a sample for cDNA synthesis. 1 μL of the same was used to measure the RNA concentration and purity at O.D. 260/280 nm using a Nanodrop.
(§2) Single-stranded cDNA synthesis was performed by mixing 1 μg of the extracted total RNA with 1 μL of oligo-d(T) primer ([…]) and 10 mM dNTP (TaKaRa Bio Inc., Japan), reacting at 65° C. for 5 minutes, followed by rapid cooling. To this template, 4 μL of 5×RT buffer, 0.5 μL of RNA inhibitor, and 100 units of RTase (TaKaRa Bio Inc., Japan) were added, and the total volume was adjusted to 20 μL using DEPC-treated distilled water. […]
(§3) Each gene expression level was measured using real-time PCR. […] The specificity of the amplified product was confirmed through melting curve analysis, and the target genes were quantified and compared using GAPDH as a control gene.

DHLF-IPF cells [2] = assay: Transwell migration assay, DHLF-IPF; settings: inherent high migration, 24 hours, FIG. 5
Protocol: In accordance with the characteristics of myofibroblasts, in which the increased expression of proteins related to fibrogenesis leads to an increase of cell migration and invasion, migration and wound healing assays were conducted to examine the effects of the final selected Compound 1 and Compound 2 on cell migration using normal and diseased fibroblasts.
A 24-well culture plate was prepared with 500 μL of medium including FBS, and an 8 μm pore size insert was placed on top. Inside the insert, 300 μL of medium without FBS was added, and MRC-5 and DHLF-IPF cells were seeded at a density of 1×10^5 cells. […] After incubation, the medium inside the 8 μm pore polycarbonate membrane insert was carefully removed, washed with DPBS, and fixed in methanol for 5 minutes. The cells were then stained with Mayer's Haematoxylin for 8 minutes after washing twice with triple-distilled water. The stained cells were washed with DPBS, gently wiped with a cotton swab inside the insert, and the membrane was cut out and mounted on a slide. The migrated cells were counted under a microscope at 200× magnification.

DHLF-IPF cells [3] = assay: Microscopic examination of cell morphology and proliferation, TGF-β1-induced DHLF-IPF; settings: microscope, FIG. 4a
Protocol: The effects of the two candidate compounds of sulforaphane prodrugs on cytotoxicity and morphological changes in normal lung fibroblast MRC-5 cells and diseased lung fibroblast DHLF-IPF cells were examined. The diseased lung fibroblast DHLF-IPF cell line was purchased from Lonza and cultured in FGM™-2 Fibroblast Growth Medium-2 BulletKit™ at 37° C. in a 5% CO2 incubator.
Additionally, the changes in cell morphology of two lung fibroblasts induced by TGF-β1 according to the treatments with Compound 1 and Compound 2 were examined with the naked eye through a microscope.

FN, COL1A1, and α-SMA [4] = assay: qRT-PCR of fibrosis-related genes in TGF-β1-induced MRC-5 cells; settings: MRC-5, 10 μM pretreatment 1 hour, TGF-β1 1 ng/ml 48 hours, FIG. 4c/4d
Protocol: as §1, §2, §3

MRC-5 cells = assay: Wound healing assay, MRC-5; settings: MRC-5, TGF-β1 treatment, 24 hours, FIG. 6
Protocol: The effects of Compound 1 and Compound 2, selected in Example 3, on cell migration (wound healing) in MRC-5 and DHLF-IPF cells were examined.
Specifically, cells (1×10^5 cells/well) were seeded in a 60 mm dish to achieve approximately 90% confluency and cultured for 24 hours. Subsequently, a straight line was scratched on the bottom with a 200 μL pipette tip, and the detached cells were removed by washing once with Dulbecco's Phosphate-Buffered Saline (DPBS). The wound was photographed under a microscope, and treatments with TGF-β1 alone, TGF-β1+SFN, TGF-β1+GSF-016, and TGF-1+GSF-018 were applied and cultured for approximately 24 hours, after which the wound was re-photographed. The images taken at 24 hours of culture were analyzed using the Image J (Fiji package) software to measure the distance between cells, and the relative migration was expressed as a percentage (%) compared to the control group.

SMILES | gene expression levels of FN, COL1A1, and α-SMA (FN, COL1A1, and α-SMA [1]) | cell migration (transwell) (DHLF-IPF cells [2]) | cell morphology (DHLF-IPF cells [3]) | inhibition of cell proliferation compared to sulforaphane-treated group (DHLF-IPF cells [3]) | gene expression levels of FN, COL1A1, and α-SMA (FN, COL1A1, and α-SMA [4]) | cell migration (wound healing) (MRC-5 cells)
CCOC(=O)C(CSC(=S)NCCCC[S+](C)[O-])NC(C)=O (stereo not drawn) [Compound 1] | significantly reducing the expression levels compared to sulforaphane | significantly inhibited in a dose-dependent manner | thin and elongated shape, which is similar to that of the control group | inhibition of cell proliferation was more significant | significantly reducing the expression levels compared to sulforaphane | significantly inhibited in a dose-dependent manner
C=CCOC(=O)C(CSC(=S)NCCCC[S+](C)[O-])NC(C)=O (stereo not drawn) [Compound 2] | significantly reducing the expression levels compared to sulforaphane | significantly inhibited in a dose-dependent manner | thin and elongated shape, which is similar to that of the control group | inhibition of cell proliferation was more significant | significantly reducing the expression levels compared to sulforaphane | significantly inhibited in a dose-dependent manner
